Laboratory results: patent publication US4775692A, “2,5,6,7-tetranor-4,8-inter-m-phenylene PGI2 derivatives” (Toray Industries, Inc., priority 1986, dated 1988)
In brackets after ≈: the same amount, converted by molar mass. Read-outs that look alike come from different tables or passages of the source.

Legend:
[1] = system: blood pressure of the carotid; experiment: Hypotensive effect (carotid blood pressure, anesthetized rat); assay type: in vivo; details: chloralose-anesthetized Wistar male rat, injected via catheter connected to femoral artery; read-out: Hypotensive effect ED25 (dose reducing blood pressure by 25 mmHg)
Experimental: A catheter was inserted to a carotid of the Wistar male rat under chloralose anesthesia. Another end of the catheter was connected to a polygraph with a pressure-transducer to detect a blood pressure of the carotid. The compound was injected via catheter connected to a femoral artery. The dose of the compound which may reduce the blood pressure in an amount of 25 mmHg was designated as ED25.

corpus of stomach = experiment: Gastric cytoprotection effect (lesion length / ulcer index after oral 0.2N NaOH); assay type: in vivo; details: 1 h, 30 min before oral 0.2N NaOH, lesion measured one hour later, read-out: Gastric cytoprotection effect ED50 (dose reducing the sore to 50% of control)
Description: Gastric cytoprotection effect
Gastric cytoprotection effect was studied according to the method by A. Robert (Gastroenterology, 77(3), 443, (1979)). Thirty min. after oral administration of the compound according to the invention, 0.2N NaOH was orally applied to the animals.
One hour later, the animals were killed under anesthesia by chloroform. The stomach was removed and fixed in a solution of 5% formalin. After fixation, the stomach was cut along the greater curvature. A total length of the lesion appearing on the corpus of stomach was then measured and served as an ulcer index.
The dose of the compound which may reduce the sore to 50% of that of the control was designated as ED50.
The gastric cytoprotection effects of the compounds according to the invention, which is thus represented by ED50, are summarized in Table 1.

gastric acid secretion [2] = experiment: Inhibiting effect of gastric acid secretion, perfused stomach, pentagastrin-stimulated (Ghosh & Schild); assay type: in vivo, male SD rat; details: urethane-anesthetized SD rat, pentagastrin 0.05 μg/kg/min, injected through femoral vein; ratio of area index to that of PGE2
Experimental: (§1) Inhibiting effect of gastric acid secretion
A male SD rat was incised in the abdomen under anesthesia by urethane and the lumen of a stomach was perfused with a physiolosical saline solution through a double-cannula inserted into a lumen of the stomach. A pH of a draining gastric acid was monitored using a pH-meter (M. Ghosh, H. Schild, Br. J. Pharmacol. 13, 54 (1958)). The secretion of gastric acid was stimulated by a continuous infusion of the pentagastrin at a rate of 0.05 μg/kg/min. When the pH of gastric acid became stable value of about 4, the compound was injected through a femoral vein. As an index of the inhibiting effect of gastric acid secretion by the compound was calculated from the area surrounded by the curve drawn by the time course of the pH of gastric acid, from the point increase by the injection of the compound and to the point it came back to baseline. The index thus obtained was compared to that of PGE2 and a ratio therebetween was shown in Table 3, as a relative effect of the compound.

gastric acid secretion [3] = experiment: Inhibiting effect of gastric acid secretion, pylorus-ligated rat (Shay); assay type: in vivo; details: pylorus ligation, injected into duodenum, 5 hours
Experimental: as §1
Under anesthesia by ether, the abdomen of the rat was incised in its median and a pylorus was ligated with silk thread according to Shay (Gastroenterology 5, 43 (1945)). Simultaneously, the compound was injected into a duodenum of the rat and then the incision was closed.
Five hours later, the median-incision of the abdomen was again performed and the esophargus was ligated and then the whole stomach was removed.
The stomach was cut along a greater curvature and the contents thereof was transferred into a graduated centrifuge tube. After centrifugation at 3,000 rpm for 10 min., a volume of a gastric juice was measured and a part of its supernatant was titrated to pH 7 with 0.1N NaOH using a pH-stat (Radio meter).
The mean dose of the compounds which may reduce the volume of gastric juice (ml) and acidity (mEq/ml) of a group of five animals to 50% of that of the controls were designated respectively as ED50.

platelet aggregation = experiment: Inhibiting effect of platelet aggregation (ADP-induced, human platelet-rich plasma); assay type: cell-based; details: human PRP, compound added one minute before ADP
Experimental: Inhibiting effect of platelet aggregation
The blood taken from a human median cubital vein was centrifuged at 800 rpm for 10 min. and a supernatant thereof was used as a platelet-rich plasma (PRP). An aliquot of PRP thus obtained was put into a small tube, to which […] (ADP) was added to induce platelet aggregation. The extent of aggregation was determined by detecting a change in turbidity of the aliquot by an apparatus for measuring platelet aggregation (Rika-Denki, Tokyo). The compound was added one minute before the addition of ADP. The concentration of the compound which may reduce the platelet aggregation, 50% of the control was designated as IC50.

[4] = acidity (mEq/ml) to 50% of controls, read-out: Inhibiting effect of gastric acid secretion ED50, Acidity
[5] = volume (ml) to 50% of controls, read-out: Inhibiting effect of gastric acid secretion ED50, Volume of the gastric juice

Compound | ED (25 mmHg) [1] | ED50 (corpus of stomach) | Inhibiting effect of gastric acid secretion, Relative effect (PGE2 = 1) (gastric acid secretion [2]) | ED50 (gastric acid secretion [3]; [4]) | ED50 (gastric acid secretion [3]; [5]) | IC50 (platelet aggregation)
CCCC(C)(C)[C@H](O)/C=C/[C@@H]1[C@H]2c3cccc(OCC(=O)O)c3O[C@H]2C[C@H]1O (relative stereo) [Compound 176, 16,16-Dimethyl-2,5,6,7,20-pentanor-4-oxa-4,8-inter-m-phenylene PGI2] | 0.69 µg/kg | 4.1 µg/kg | 48 | – | – | –
CCCCC(C)(C)[C@H](O)/C=C/[C@@H]1[C@H]2c3cccc(OCC(=O)O)c3O[C@H]2C[C@H]1O (relative stereo) [Compound 180, 16,16-Dimethyl-2,5,6,7-tetranor-4-oxa-4,8-inter-m-phenylene PGI2] | 0.69 µg/kg | 2.9 µg/kg | 72 | 1780 µg/kg | 510 µg/kg | –
O=C(O)COc1cccc2c1O[C@H]1C[C@@H](O)[C@H](/C=C/[C@@H](O)CC3CCCC3)[C@@H]21 (relative stereo) [Compound 238, 16-cyclopentyl-2,5,6,7,17,18,19,20-octanor-4-oxa-4,8-inter-m-phenylene PGI2] | 0.14 µg/kg | 4.9 µg/kg | 11 | – | – | 0.24 ng/mL (≈ 0.618 nM)
CC(C)(Cc1ccccc1)[C@H](O)/C=C/[C@@H]1[C@H]2c3cccc(OCC(=O)O)c3O[C@H]2C[C@H]1O (relative stereo) [Compound 297, 16,16-dimethyl-17-phenyl-2,5,6,7,18,19,20-heptanor-4-oxa-4,8-inter-m-phenylene PGI2] | 0.34 µg/kg | – | 75 | – | – | 13 ng/mL (≈ 29.6 nM)
CC(C)(Oc1ccccc1)[C@H](O)/C=C/[C@@H]1[C@H]2c3cccc(OCC(=O)O)c3O[C@H]2C[C@H]1O (relative stereo) [Compound 317, 16-Methyl-16-phenoxy-2,5,6,7,18,19,20-heptanor-4-oxa-4,8-inter-m-phenylene PGI2] | 1.3 µg/kg | 0.49 µg/kg | 62 | – | – | –
CCCCC[C@H](O)/C=C/[C@H]1[C@H](O)CC(=O)[C@@H]1C/C=C\CCCC(=O)O [PGE2, reference compound] | – | – | 1 | – | – | –
O=C(O)COc1cccc2c1O[C@H]1C[C@@H](O)[C@H](/C=C/[C@@H](O)COc3ccccc3)[C@@H]21 (relative stereo) [Compound 313, 16-Phenoxy-2,5,6,7,17,18,19,20-octanor-4-oxa-4,8-inter-m-phenylene PGI2] | 2.1 µg/kg | 21.1 µg/kg | 53 | 310 µg/kg | 420 µg/kg | –
CC(C)(c1ccccc1)[C@H](O)/C=C/[C@@H]1[C@H]2c3cccc(OCC(=O)O)c3O[C@H]2C[C@H]1O (relative stereo) [Compound 293, 16-methyl-16-phenyl-2,5,6,7,18,19,20-heptanor-4-oxa-4,8-inter-m-phenylene PGI2] | 46 µg/kg | – | 4.8 | – | – | –
CCCC[C@H](C)C[C@H](O)/C=C/[C@@H]1[C@H]2c3cccc(OCC(=O)O)c3O[C@H]2C[C@H]1O [Compound 218, (17S)-17-Methyl-20a-homo-2,5,6,7-tetranor-4-oxa-4,8-inter-m-phenylene PGI2] | 0.045 µg/kg | 0.27 µg/kg | – | – | – | 0.18 ng/mL (≈ 0.445 nM)
CC(C)(CC1CCCCC1)[C@H](O)/C=C/[C@@H]1[C@H]2c3cccc(OCC(=O)O)c3O[C@H]2C[C@H]1O (relative stereo) [Compound 252, 17-cyclohexyl-16,16-dimethyl-2,5,6,7,18,19,20-heptanor-4-oxa-4,8-inter-m-phenylene PGI2] | 5.6 µg/kg | 6.5 µg/kg | 13 | – | – | –
CCC[C@H](C)C[C@H](O)/C=C/[C@@H]1[C@H]2c3cccc(OCC(=O)O)c3O[C@H]2C[C@H]1O [Compound 213, 17-(S)-Methyl-2,5,6,7-tetranor-4-oxa-4,8-inter-m-phenylene PGI2] | 0.023 µg/kg | – | 41 | 230 µg/kg | 87 µg/kg | 0.075 ng/mL (≈ 0.192 nM)
CCCCCC[C@H](O)/C=C/[C@@H]1[C@H]2c3cccc(OCC(=O)O)c3O[C@H]2C[C@H]1O (relative stereo) [Compound 160, 20a-Homo-2,5,6,7-tetranor-4-oxa-4,8-inter-m-phenylene PGI2] | 0.23 µg/kg | – | 13 | 450 µg/kg | 97 µg/kg | 0.41 ng/mL (≈ 1.05 nM)
CC(C)(Oc1ccccc1)[C@H](O)/C=C/[C@@H]1[C@H]2c3cccc(C#CC(=O)O)c3O[C@H]2C[C@H]1O (relative stereo) [Compound 371, 16-Methyl-16-phenoxy-2,5,6,7,18,19,20-heptanor-3,3,4,4-tetradehydro-4,8-inter-m-phenylene PGI2] | 2.4 µg/kg | 27.9 µg/kg | 8 | 4600 µg/kg | > 10000 µg/kg | –
COCC(C)(C)[C@H](O)/C=C/[C@@H]1[C@H]2c3cccc(OCC(=O)O)c3O[C@H]2C[C@H]1O (relative stereo) [Compound 301, 16,16-Dimethyl-2,5,6,7,20-pentanor-4,18-dioxa-4,8-inter-m-phenylene PGI2] | 0.36 µg/kg | 38.5 µg/kg | 16 | – | – | –
CC(C)[C@H](O)/C=C/[C@@H]1[C@H]2c3cccc(OCC(=O)O)c3O[C@H]2C[C@H]1O (relative stereo) [Compound 164, 16-Methyl-2,5,6,7,18,19,20-heptanor-4-oxa-4,8-inter-m-phenylene PGI2] | – | 9.6 µg/kg | 12 | 890 µg/kg | 1340 µg/kg | 1.35 ng/mL (≈ 3.87 nM)
CC(C)(C1CCCCC1)[C@H](O)/C=C/[C@@H]1[C@H]2c3cccc(OCC(=O)O)c3O[C@H]2C[C@H]1O (relative stereo) [Compound 248, 16-cyclohexyl-16-methyl-2,5,6,7,18,19,20-heptanor-4-oxa-4,8-inter-m-phenylene PGI2] | 11 µg/kg | 31.1 µg/kg | 13 | – | – | –
CC(C)C(C)(C)[C@H](O)/C=C/[C@@H]1[C@H]2c3cccc(OCC(=O)O)c3O[C@H]2C[C@H]1O (relative stereo) [Compound 196, 16,16,17-Trimethyl-2,5,6,7,19,20-hexanor-4-oxa-4,8 inter-m-phenylene PGI2] | – | 150 µg/kg | – | – | – | –
